The results in this text go back to ChEMBL document CHEMBL4831513, “Discovery of quinazoline derivatives as a novel class of potent and in vivo efficacious LSD1 inhibitors by drug repurposing” (Eur J Med Chem, 2021).

The assay deals with Lysine-specific histone demethylase 1A (Homo sapiens, UniProt O60341).

Description: Inhibition of recombinant full length LSD1 (unknown origin) transfected in Escherichia coli BL21 (DE) using H3K4me2 as substrate by flourescence based analysis

For `COCCOc1cc2ncnc(N3CCN(c4ccccc4F)CC3)c2cc1OCCOC`, the IC50 – broadly, the midpoint of a concentration-inhibition curve – is greater than 50 µM.

Turning to `COCCOc1cc2ncnc(Nc3ccccc3)c2cc1OCCOC`, the IC50 was greater than 50 µM.

Compound `COCCOc1cc2ncnc(Sc3ccccn3)c2cc1OCCOC` gave an IC50 greater than 50 µM.

Turning to `COCCOc1cc2ncnc(N3CCN(C(C)=O)CC3)c2cc1OCCOC`, the IC50 is greater than 50 µM.

For `C#Cc1cccc(Nc2ncnc3cc(OC)c(OC)cc23)c1`, the IC50 was greater than 50 µM.

For the compound `COCCOc1cc2ncnc(Sc3ccc(C)cc3)c2cc1OCCOC`, the IC50 was greater than 50 µM.

The compound `COCCOc1cc2ncnc(Oc3ccc(OC)cc3)c2cc1OCCOC` came in with an IC50 greater than 50 µM.

`C#Cc1cccc(Nc2nc(-c3ccccc3)nc3ccccc23)c1`: the IC50 is greater than 50 µM.

Compound `COCCOc1cc2ncnc(Sc3ccc(Cl)cc3)c2cc1OCCOC` gave an IC50 greater than 50 µM.

Consider `COCCOc1cc2ncnc(Oc3cccc(Cl)c3)c2cc1OCCOC`, for which the IC50 was greater than 50 µM.

For the compound `COCCOc1cc2ncnc(Nc3ccc(F)cc3)c2cc1OCCOC`, the IC50 is greater than 50 µM.

`COCCOc1cc2ncnc(Nc3ccc(Br)cc3)c2cc1OCCOC` came in with an IC50 greater than 50 µM.

Consider `C#Cc1cccc(Nc2ncnc3ccc(Br)cc23)c1`, for which the IC50 is greater than 50 µM.

Regarding `C#Cc1cccc(Nc2ncnc3ccccc23)c1`, the IC50 was greater than 50 µM.

Regarding `COCCOc1cc2ncnc(Nc3ccc4c(c3)OCO4)c2cc1OCCOC`, the IC50 was greater than 50 µM.

`C#Cc1cccc(Nc2ncnc3cc(OCc4ccccc4)c(OC)cc23)c1` gave an IC50 greater than 50 µM.

Compound `COCCOc1cc2ncnc(Sc3nnnn3C)c2cc1OCCOC` came in with an IC50 greater than 50 µM.

`COCCOc1cc2ncnc(Sc3nnnn3-c3ccccc3)c2cc1OCCOC` came in with an IC50 greater than 50 µM.
